Laboratory results published in patent publication US8372973B2, “Prokineticin 1 receptor antagonists” (Janssen Pharmaceutica N.V., priority 2005, dated 2013).
Values joined by “and” are separate entries in the source; they are usually repeats but may differ in a detail not shown here. Equal entries are not always repeated. “Also recorded” adds a separate entry of the source. Where two headings read alike, the source gives them in different places.

Assays:
[1] = biological target: T1, GPR73 (prokineticin 1 receptor) (Homo sapiens, UniProt Q8TCW9); assay: PK1 functional assay: Ca2+ mobilization on the FLIPR; assay type: cell-based; details: for inhibition at 10 µM: read-out: Ca^2+ Mobilization % Inh @10 μM; for IC50: HEK 293 GPR73 expressing cells, PK1 ligand preparation at its EC50, read-out: Ca^2+ Mobilization IC50
T1 construct: expressed in transfected cells; host or cells: HEK 293
Procedure: At a time of 24 h prior to running the assay, in cell culture media (DMEM containing high Glucose and L-glutamine, 10% FBS, 1% Pen/Streptomycin, 1% Sodium Pyruvate, 20 mM HEPES, Zeocin 200 mg/L), […] of 1.3*10^6/ml HEK 293 GPR73 (prokineticin 1 receptor) expressing cells were plated in a 96 well poly-d-lysine coated plate (Costar), and incubated at 37° C. and 5% CO2. On the day in which the assay was run, the media was removed and […] of 5× Calcium Plus Dye (Molecular Devices) which was previously resuspended with 200 mL of assay buffer [HBSS w/Ca^2+ and Mg^2+ w/o phenol red, 20 mM HEPES, 0.1% BSA, 10 mL probenecid (710 mg probenecid in 5 mL of 1N NaOH, to which was then added 5 mL HBSS containing 20 mM HEPES)] was added to each well of the 96-well plate. The plate was incubated at 37° C. and 5% CO2 for 30 min in dark. The plate was removed and allowed to reach RT for 15 min in the dark. The assay was then run on the FLIPR. In Brief: base line read for 1 min, compound added (25 μL) and incubated for 4 min, 15 seconds, PK1 ligand preparation added (25 μL) for a final concentration of a previously determined EC50 and fluorescence was counted for 1 min, 45 seconds. Baseline is described as the amount of relative fluorescence read when buffer alone is added to cells. Baseline was subtracted from all wells. Percent of control was calculated as follows:
(Baseline subtracted well value is divided by baseline subtracted max value)*100. Percent inhibition is 100 minus the percent of control value.
The IC50 is defined as the amount of a given compound required to inhibit 50% of the maximum signal that is generated by the concentration of PK1 preparation used in our assay. IC50 values were calculated using GraphPad Prism.

PK1 receptor = biological target: T2, PK1 receptor (Rattus norvegicus, UniProt Q8R416); assay: Suppression of PK1-evoked increase in Isc in isolated rat ileum mucosa, Ussing-type chambers; details: 1 μM test compound, 15 min; PK1 10 and 100 nM cumulative
T2 construct: The PK1 evoked increase in Isc requires the presence of endogenous PK1 receptors; from tissue; host or cells: isolated rat ileum mucosa
Procedure: Methodology. The basic methodology for Ussing-type ion flux chambers used in these studies was the same as that described in detail above with the following modifications to the experimental protocol. […] The responses to two sequential EFS were used to gauge tissue viability and comparability of the responses of individual tissues from each rat and between rats. Tissue conductance was measured at periodic intervals as changes in the amplitudes of brief short-circuit current responses evoked by application of 1 mV amplitude bi-polar pulses from a pulse generator using Ohm's Law. Three to four tissues from each rat were studied. The tissues from a given animal were grouped and assigned accordingly: one control tissue which received only vehicle followed by two consecutive doses of PK-1 ligand added in a cumulative fashion to the basolateral surface of the tissue; the remaining two to three tissues from the same animal were assigned to be exposed to a given PK-1 receptor antagonist (e.g., 3-4 tissues from 1 rat: Control, Antagonist1, Antagonist2, and/or Antagonist3). Test compound was added to the basolateral tissue side reservoir at a final concentration of 1 μM and allowed a 15 minute incubation period prior to challenge with the PK1 peptide. […]

[2] = system: pro-secretory effect of carbachol; assay: Selectivity test against carbachol-evoked secretion in rat ileum mucosa, Ussing-type chambers
[3] = system: Cholera toxin stimulated gut secretion; design: species or system rat
[4] = system: ileum mucosal tissues from PK1 receptor knock-out mice; assay: PK1 effect on Isc in ileum mucosal tissues from PK1 receptor knock-out mice; details: exogenous PK1 peptide

T1 sequence (Q8TCW9 whole entry, species assumed): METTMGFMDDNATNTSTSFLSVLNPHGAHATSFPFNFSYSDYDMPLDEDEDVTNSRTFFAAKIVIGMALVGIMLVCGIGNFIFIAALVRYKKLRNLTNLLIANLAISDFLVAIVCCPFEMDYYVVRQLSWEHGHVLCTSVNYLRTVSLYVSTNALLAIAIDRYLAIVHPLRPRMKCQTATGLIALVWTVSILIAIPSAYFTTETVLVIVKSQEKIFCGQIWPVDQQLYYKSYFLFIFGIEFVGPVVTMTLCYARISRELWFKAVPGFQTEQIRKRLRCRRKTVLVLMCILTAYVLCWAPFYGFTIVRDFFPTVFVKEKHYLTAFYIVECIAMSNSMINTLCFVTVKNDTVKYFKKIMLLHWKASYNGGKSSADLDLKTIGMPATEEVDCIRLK
T2 sequence (Q8R416 whole entry): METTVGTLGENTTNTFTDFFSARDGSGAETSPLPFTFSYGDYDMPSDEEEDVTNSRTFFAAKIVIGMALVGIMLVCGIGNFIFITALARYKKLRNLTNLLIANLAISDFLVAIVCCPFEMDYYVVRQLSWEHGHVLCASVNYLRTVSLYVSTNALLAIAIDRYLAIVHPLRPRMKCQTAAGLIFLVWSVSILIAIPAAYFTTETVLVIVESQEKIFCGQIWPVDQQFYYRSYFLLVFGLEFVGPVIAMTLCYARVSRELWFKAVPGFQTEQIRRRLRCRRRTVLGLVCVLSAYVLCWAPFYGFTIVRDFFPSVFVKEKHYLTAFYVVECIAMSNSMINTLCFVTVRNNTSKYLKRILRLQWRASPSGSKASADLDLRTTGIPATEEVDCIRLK

Molecule	inhibition at 10 µM ([1]; @10 μM compound) [%]	IC50 [1]	also measured
COc1ccc(Cn2c(NCc3cccnc3)nc(=O)n(Cc3ccc(OC)cc3)c2=O)cc1 [Cpd 40]	83	557 nM	
COc1ccc(Cn2c(=O)nc(NCc3cnc(C)cc3C)n(Cc3ccc(OC(F)F)cc3)c2=O)cc1 [Cpd 96]	92		
COc1ccc(Cn2c(NCc3cccnc3N)nc(=O)n(Cc3ccc(OC)cc3)c2=O)cc1 [Cpd 3, 6-[(2-Amino-pyridin-3-ylmethyl)-amino]-1,3-bis-(4-methoxy-benzyl)-1H-[1,3,5]triazine-2,4-dione]			suppression of the PK1 evoked increase in Isc (PK1 receptor): suppresses; also recorded: significant surmountable antagonism; suppression of the pro-secretory effect of carbachol (unrelated secretagogue) [2]: without inhibiting; suppression of the pro-secretory effect of carbachol (unrelated secretagogue) ([2]; two ascending cumulative carbachol concentrations, serosal side): without inhibiting; also recorded: failed to suppress; suppression of Cholera toxin-evoked stimulation of gut secretion (in words) [3]: suppresses; suppression of the sustained increase in baseline Isc evoked by Cholera toxin [3]: 50-60%
COc1ccc(Cn2c(=O)nc(NCc3cnc(C)cc3C)n(Cc3ccccc3OC)c2=O)cc1 [Cpd 106]	99	25 nM and 74 nM	Ca^2+ Mobilization % Inh @10 μM ([1]; @10 μM compound, 10 µM): 101%
COc1ccccc1Cn1c(=O)nc(NCc2cnc(C)cc2C)n(Cc2ccc(OC(F)F)cc2)c1=O [Cpd 193]	39	> 10000 nM	
PK1: Recombinant human prokineticin-1 from HEK 293 cells, FLAG epitope cleaved; mixture of full-length ligand and four C-terminal residue truncated product (protein, mixture with C-terminal truncated product; Recombinant N-terminal FLAG-tagged human prokineticin-1 after enterokinase cleavage of Flag-tag) AVITGACERDVQCGAGTCCAISLWLRGLRMCTPLGREGEECHPGSHKVPFFRKRKHHTCPCLPNLLCSRFPDGRYRCSMDLKNINF			change in Isc compared to wild-type littermates [4]: failed to elicit a significant change
